Experimental data: ChEMBL document CHEMBL1157761, “Cytotoxic nor-chamigrane and chamigrane endoperoxides from a basidiomycetous fungus” (J Nat Prod, 2010)
Converted amounts (≈) assume the structure as drawn.

How the values were obtained:
SW-620 = assay: Cytotoxicity against human SW620 cells by MTT assay; type: functional, cell-based
BT-474 = assay: Cytotoxicity against human BT474 cells by MTT assay; type: functional, cell-based

SMILES | IC50 (SW-620) [µg/mL] | IC50 (BT-474) [µg/mL]
CC1(C)CCC(=O)[C@H]2OO[C@@H]3C[C@]21CC[C@@]3(O)CO [MERULINS B] | > 10 | > 10
CC1(C)CCC(=O)[C@@]2(C)OO[C@@H]3C[C@@]12CC[C@H]3O [MERULIN A] | 4.84 (≈ 19 µM) | 4.98 (≈ 19.6 µM)
CC1(C)CCC(=O)[C@H]2OO[C@@H]3C[C@@]21CC[C@]3(O)CO [MERULINS C] | 4.11 (≈ 15.2 µM) | 1.57 (≈ 5.81 µM)
